According to patent publication US8227203B2, “Method for testing or screening protein synthesis inhibitors” (The Trustees of the University of Pennsylvania, priority 2007, dated 2012):

Legend:
[1] = system: HeLa PV cells; assay: SMN sub-cellular localization by indirect immunofluorescence (anti-SMN 2B1); assay type: cell-based; settings: for completeness of SMN nuclear accumulation compared with CHX: ER stress inducers, FIG. 6B; for redistribution of SMN from the cytoplasm to the nucleus (nuclear accumulation of SMN): HeLa cells, short treatment (2-6 hours), immunofluorescence; for nuclear translocation of SMN at longer times: longer times (>24 hr), FIG. 5a
Procedure: (§1) HeLa PV were cultured in Dulbecco's modified Eagle's medium (Invitrogen) supplemented with 10% fetal bovine serum (Invitrogen). For screening, cells were seeded onto 384-well plates or, for specific experiments, on glass coverslips the day before treatment. Compounds were added directly into the culture medium to the indicated concentration and the cells were then maintained at 37° C. in a 5% CO2 humidified atmosphere for the duration of the treatment. Dispensing of compounds and other automatic liquid handling steps were performed with a Beckman FX multi-channel system equipped with Hudson Crane robotic systems.
(§2) The following mouse monoclonal antibodies were used for indirect immunofluorescence: 2B1 (anti-SMN), 2E17 (anti-Gemin2), 12H12 (anti-Gemin3), 10G11 (anti-Gemin5), 6E2 (anti-Gemin7), 10E10 (anti-PABP), 6BG10 (anti-FXR1), Y12 (anti-Sm) and 9H10 (anti-hnRNP A1). An affinity-purified rabbit polyclonal antibody was used to detect Gemin6.
(§3) Indirect immunofluorescence on HeLa PV cells was performed as follows: HeLa cells, plated on glass coverslips, were briefly washed with PBS, fixed in 2% formaldehyde/PBS for 20 minutes at room temperature, permeabilized in 0.5% Triton X-100/PBS for 5 min at room temperature. Cells were blocked in 3% bovine serum albumin for 1 hour at room temperature. Double-label immunofluorescence experiments were performed by separate sequential incubations of each primary antibody, diluted in PBS containing 3% bovine serum albumin, followed by the specific secondary coupled to fluorescein isothiocyanate or TXRD. All incubations were at room temperature for 1 hour. Indirect epifluorescence microscopy was performed with a Nikon Eclipse E800 microscope. Digital images were collected with a Cook Sensicam high performance camera and processed with the IP laboratory software. Processing of samples for immunofluorescence microscopy on cells cultured in 384-well plates was automated and performed with the aid of microplate washers (ELX405, Bio-Tek) in a similar manner to that previously used for individual samples on glass slides. The cells were also stained with DAPI to allow definition of the nucleus in each cell. Digital images were acquired with an automated microscopy and analysis system (IN Cell Analyzer 1000, GE Healthcare). Images were analyzed using automated algorithms with parameters set to calculate mean pixel intensity in each nucleus (defined by DAPI staining and acquired in a separate channel), cytoplasm, and total cell, as well as the relevant calculated ratios of these values.
Based on the results obtained in Example 1, a library of ˜5,000 biologically active small molecules was screened on HeLa cells in 384-well plates. Each well was incubated with a different compound (at 10 μM) and the cells were processed for indirect immunofluorescence. Digital images were collected from six fields in each well and analyzed using imaging algorithms for multiple parameters including relative nuclear and cytoplasmic intensities, and number, size and signal intensity of Gems. DAPI-stained images were collected in a separate channel to define the boundary of each nucleus. Images of individual fields in wells were flagged by the software as showing a significant change in SMN sub-cellular localization. These individual wells were examined directly, and active compounds were re-tested for verification (FIG. 2).

[2] = system: HeLa cells; assay: Localization of other nuclear and cytoplasmic proteins (hnRNP A1, PABP, FXR1, snRNPs) by immunostaining; assay type: cell-based; settings: 6 hrs of 10 μM CHX (FIG. 3c)
Procedure: as §2
Indirect immunofluorescence on HeLa PV cells was performed as follows: HeLa cells, plated on glass coverslips, were briefly washed with PBS, fixed in 2% formaldehyde/PBS for 20 minutes at room temperature, permeabilized in 0.5% Triton X-100/PBS for 5 min at room temperature. Cells were blocked in 3% bovine serum albumin for 1 hour at room temperature. Double-label immunofluorescence experiments were performed by separate sequential incubations of each primary antibody, diluted in PBS containing 3% bovine serum albumin, followed by the specific secondary coupled to fluorescein isothiocyanate or TXRD. All incubations were at room temperature for 1 hour. Indirect epifluorescence microscopy was performed with a Nikon Eclipse E800 microscope. […] Images were analyzed using automated algorithms with parameters set to calculate mean pixel intensity in each nucleus (defined by DAPI staining and acquired in a separate channel), cytoplasm, and total cell, as well as the relevant calculated ratios of these values.

[3] = system: HeLa cells; assay: Cell viability / toxicity of treated cells; settings: overnight treatment with 10 μM CHX
[4] = system: Hela cells with reduced SMN by RNAi; assay: SMN localization in HeLa cells with reduced SMN by RNAi (shRNA targeting SMN); assay type: cell-based; settings: vs cells expressing non-targeting shRNA; 10 μM CHX 6 hours (FIG. 7)
Procedure: as §3, with “The cells were also stained with DAPI to allow definition of the nucleus in each cell. Digital images were acquired with an automated microscopy and analysis system (IN Cell Analyzer 1000, GE Healthcare).” left out

[5] = system: HeLa cells; assay: Sub-cellular localization of Gemins by immunostaining; assay type: cell-based
Procedure: as §1, with “systems. […]” for “systems.”
Indirect immunofluorescence on HeLa PV cells was performed as follows: HeLa cells, plated on glass coverslips, were briefly washed with PBS, fixed in 2% formaldehyde/PBS for 20 minutes at room temperature, permeabilized in 0.5% Triton X-100/PBS for 5 min at room temperature. […] Images were analyzed using automated algorithms with parameters set to calculate mean pixel intensity in each nucleus (defined by DAPI staining and acquired in a separate channel), cytoplasm, and total cell, as well as the relevant calculated ratios of these values. […]

Compound: C/C=C(/C)C(=O)O[C@H]1C(C)=C2[C@H]([C@@H]1OC(=O)CCCCCCC)[C@@](C)(OC(C)=O)C[C@H](OC(=O)CCC)[C@@]1(O)[C@H]2OC(=O)[C@@]1(C)O [thapsigargin]
- SMN localization (FIG. 6b) ([1]; 10 μM): nuclear accumulation
- completeness of SMN nuclear accumulation compared with CHX [1]: not as complete as that seen after treatment with high levels of CHX
- redistribution of SMN from the cytoplasm to the nucleus (nuclear accumulation of SMN) [1]: caused SMN to accumulate in the nucleus

Compound: COc1ccc(C[C@H](N)C(=O)N[C@H]2[C@@H](O)[C@H](n3cnc4c(N(C)C)ncnc43)O[C@@H]2CO)cc1 [puromycin]
- SMN localization (FIG. 6b) ([1]; 10 μM): nuclear accumulation
- redistribution of SMN from the cytoplasm to the nucleus (nuclear accumulation of SMN) [1]: showed the same effect as cycloheximide

Compound: O=C(CCCCCN1C(=O)c2cccc3cccc(c23)C1=O)NO [scriptaid]
- nuclear translocation of SMN at longer times [1]: caused the same effect as protein synthesis inhibitors

Compound: CC(/C=C/C(=O)NO)=C\[C@@H](C)C(=O)c1ccc(N(C)C)cc1 [trichostatin A]
- nuclear translocation of SMN at longer times [1]: caused the same effect as protein synthesis inhibitors

Compound: CCOC(=O)CN1C(=O)CC(C[C@@H](O)[C@@H]2C[C@@H](C)C[C@H](C)C2=O)CC1=O [cycloheximide-N-ethylethanoate]
- redistribution of SMN from the cytoplasm to the nucleus (nuclear accumulation of SMN) [1]: did not show any effect

Compound: C[C@@H]1C[C@@H]([C@H](O)CC2CC(=O)NC(=O)C2)C(=O)[C@@H](C)C1 [cycloheximide]
- relation of nuclear accumulation of SMN to inhibition of protein synthesis [1]: proportional to the extent of inhibition of protein synthesis
- concentration dependence of SMN redistribution from the cytoplasm to the nucleus ([1]; 0.1-40 μM (FIG. 3a, b)): concentration-dependent
- treatment time after which the effect on SMN redistribution was evident ([1]; HeLa PV cells, 10 μM CHX (FIG. 3a)): 2 h
- redistribution of SMN from the cytoplasm to the nucleus (nuclear accumulation of SMN) [1]: most striking accumulation of SMN in the nucleus
- SMN remaining in the cytoplasm ([1]; after 8 or more hours of treatment): little SMN detected in the cytoplasm
- reversibility of SMN nuclear accumulation ([1]; cells washed and placed in fresh medium devoid of cycloheximide): reversible
- SMN localization after overnight treatment ([1]; overnight treatment with 10 μM CHX): all of the SMN was localized to the nucleus
- localization of hnRNP A1, PABP, FXR1 and snRNPs [2]: not significantly affected
- cell viability [3]: no reduction in cell viability
- SMN nuclear accumulation in cells with reduced SMN [4]: showed a similar effect
- nuclear accumulation of SMN complex components (Gemins) ([5]; 6 hours 10 μM CHX (FIG. 4)): causes most of the components of the SMN complex to accumulate in the nucleus

Compound: CCCC(CCC)C(=O)O [valproic acid]
- concentration dependence of nuclear localization of SMN ([1]; 2-10 mM VPA (FIG. 5b)): clear concentration dependence effect
- nuclear translocation of SMN at longer times [1]: caused the same effect as protein synthesis inhibitors
- localization of Gemin3 and Gemin5 ([5]; 24 hour treatment, 10 mM VPA (FIG. 5c)): remain predominantly cytoplasmic

Compound: tunicamycin
- SMN localization (FIG. 6b) ([1]; 10 μg/ml): nuclear accumulation
- completeness of SMN nuclear accumulation compared with CHX [1]: not as complete as that seen after treatment with high levels of CHX
- redistribution of SMN from the cytoplasm to the nucleus (nuclear accumulation of SMN) [1]: caused SMN to accumulate in the nucleus

Compound: CC[C@H]1CN2CCc3cc(OC)c(OC)cc3[C@@H]2C[C@@H]1C[C@H]1NCCc2cc(OC)c(OC)cc21 [emetine]
- SMN localization (FIG. 6b) ([1]; 10 μM): nuclear accumulation
- redistribution of SMN from the cytoplasm to the nucleus (nuclear accumulation of SMN) [1]: showed the same effect as cycloheximide
